Results: US20220073496A1, “NOVEL QUINOLINE DERIVATIVE INHIBITOR” (Nanjing Transthera Biosciences Co., Ltd., priority 2018, published 2022)

Columns and labels:
[1] = Stability in liver microsome of mice; type: in vitro ADME; conditions: Mouse liver microsome 0.5 mg protein/mL, compound 1 μM, 37° C.; for half-life at 1 μM / microsomal CLint at 1 μM: liver microsomes
Procedure: Assay 1: Stability assessment of the compounds of the present invention in liver microsome of mice and dogs
(§1) Test substances: the compounds of the present invention, wherein the structures and preparations thereof were as described above.
The composition of the incubation system:
Preparation of Test Substances:
An appropriate amount of the compound was accurately weighed and dissolved in DMSO to prepare a 5.0 mM stock solution. The 5.0 mM stock solution was diluted to 1.0 mM with DMSO, and finally diluted with water to a 10 μM test substance working solution for use (the DMSO content in the reaction system was 0.1%).
(1) The liver microsome (20 mg protein/mL) was taken out from the −80° C. refrigerator, pre-incubated at 37° C. with a water-bathing constant temperature vibrator for 3 minutes, and melted for use.
(2) A mixed solution of the incubation system (excluding compounds and β-NADPH) according to the above “composition of the incubation system” for the assay was prepared, and pre-incubated at 37° C. with a water-bathing constant temperature vibrator for 2 minutes.
(3) Control group (excluding β-NADPH): 30 μL of water and 30 μL of compound working solution (10 μM) were added to 240 μL of the mixed solution of the incubation system of step (2), and vortexed for 30 seconds to mix well. The total reaction volume was 300 μL. A duplicate sample was prepared. The sample was incubated at 37° C. with a water-bathing constant temperature vibrator. The timekeeping began and the sampling time points were set at 0 minute and 60 minutes.
(4) Sample group: 70 μL of β-NADPH solution (10 mM) and 70 μL of compound working solution (10 μM) were added to 560 μL of the mixed solution of step (2). The total reaction volume was 700 μL. The resulting mixture was vortexed for 30 seconds to mix well. A duplicate sample was prepared. The sample was incubated at 37° C. with a water-bathing constant temperature vibrator. The timekeeping began and the sampling time points were set at 0 minute, 5 minutes, 10 minutes, 20 minutes, 30 minutes, and 60 minutes after timekeeping.
(5) After vortexing for 3 minutes, the sample was centrifuged at 4000 rpm for 10 minutes.
(6) 50 μL of the supernatant was taken and 150 μL of water was added. The resulting mixture was vortexed to mix well, and analyzed by LC/MS/MS.
The half-life (t1/2) and clearance rate (Cl) were calculated using the following first-order kinetic formula:
Vd=1/protein content in liver microsome
Note: k was the slope of the logarithm of the remaining amount of the compound versus time, and Vd was the apparent distribution volume.

Axl (h) = target: T1, Axl (h) (Homo sapiens, UniProt P30530); assay: Enzymatic activity test, Axl (h); type: biochemical; conditions: 10 μM [γ-33P]-ATP, 40 minutes, room temperature
T1 construct: purchased
T1 sequence (P30530 26-894): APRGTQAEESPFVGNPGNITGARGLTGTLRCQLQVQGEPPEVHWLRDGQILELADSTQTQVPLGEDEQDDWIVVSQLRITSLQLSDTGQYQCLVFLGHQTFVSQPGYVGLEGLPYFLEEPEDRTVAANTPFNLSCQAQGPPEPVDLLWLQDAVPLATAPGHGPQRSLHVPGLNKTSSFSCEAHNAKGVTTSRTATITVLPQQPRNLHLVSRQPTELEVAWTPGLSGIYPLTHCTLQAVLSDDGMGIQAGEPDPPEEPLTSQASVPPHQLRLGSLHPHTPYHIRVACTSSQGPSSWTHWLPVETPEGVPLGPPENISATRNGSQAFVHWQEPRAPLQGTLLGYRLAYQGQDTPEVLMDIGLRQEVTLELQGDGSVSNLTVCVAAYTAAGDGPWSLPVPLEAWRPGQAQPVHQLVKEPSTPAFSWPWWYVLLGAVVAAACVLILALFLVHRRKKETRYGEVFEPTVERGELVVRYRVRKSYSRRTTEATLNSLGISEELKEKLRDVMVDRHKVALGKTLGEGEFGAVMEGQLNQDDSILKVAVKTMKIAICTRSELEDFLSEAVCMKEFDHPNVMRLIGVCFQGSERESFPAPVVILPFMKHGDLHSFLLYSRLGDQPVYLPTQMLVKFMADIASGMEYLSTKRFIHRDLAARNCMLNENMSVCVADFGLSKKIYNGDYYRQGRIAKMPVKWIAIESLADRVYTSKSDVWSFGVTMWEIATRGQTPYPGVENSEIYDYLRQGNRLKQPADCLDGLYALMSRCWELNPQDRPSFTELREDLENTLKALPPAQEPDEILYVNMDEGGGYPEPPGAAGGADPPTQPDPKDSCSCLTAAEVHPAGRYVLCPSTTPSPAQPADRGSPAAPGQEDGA
Procedure: Assay 3: Enzymatic Activity Test of the Compounds of the Present Invention
as §1
(1) Preparation of the Compound Stock Solution
The compound was dissolved in 100% DMSO to prepare a stock solution with a maximum concentration of 500 μM.
(2) Preparation of the Compound Working Solution
The compound stock solution was diluted to final concentrations of 500, 150, 50, 15, 5, 1.5, 0.5, 0.15 and 0.05 μM to become the compound working solutions (50×).
(3) Preparation of Different Enzyme Reaction Solutions
The Axl (h) enzyme was dissolved in 8 mM MOPS (pH 7.0), 0.2 mM EDTA, and 250 μM KKSRGDYMTMQIG to prepare an enzyme solution having a final concentration of 1.7 nM. The enzymatic reaction was activated by using 10 mM magnesium acetate and 10 μM [γ-^33P]-ATP to form an Mg/ATP mixed solution.
In a 384-well plate, the compound working solution was added to final concentrations of 10000, 3000, 1000, 300, 100, 30, 10, 3, and 1 nM. Then different enzyme reaction solutions prepared according to the above conditions were added. The incubation was carried out for 40 minutes at room temperature. The test was terminated by the addition of a 0.5% phosphoric acid solution. 10 μL of the reaction solution was taken and dropped to the P30 filter paper. The filter paper was washed 4 times with 0.425% phosphoric acid solution and once with methanol, and then placed on a scintillation counter. The […] IC50 values were calculated using GraphPad 5.0 software.

Row | SMILES | half-life at 1 μM [1] [h] | microsomal CLint at 1 μM [1] [µL/min/mg] | IC50 (Axl (h)) [nM] | t1/2 [1]
1 | COc1cc2nccc(Oc3ccc(NC(=O)c4cn(C(C)C)cc(-c5ccc(C)cc5)c4=O)nc3)c2cc1OC [Compound 1, N-(5-((6,7-dimethoxyquinolin-4-yl)oxy)pyridin-2-yl)-1-isopropyl-4-oxo-5-p-tolyl-1,4-dihydropyridin-3-carboxamide] | 1.27 | 18.2 | 17 | –
2 | COc1cc2nccc(Oc3ccc(NC(=O)c4cn(C(C)C)cc(-c5ccc(F)cc5)c4=O)nc3)c2cc1OC [Compound 14, N-(5-((6,7-dimethoxyquinolin-4-yl)oxy)pyridin-2-yl)-5-(4-fluorophenyl)-1-isopropyl-4-oxo-1,4-dihydropyridin-3-carboxamide] | 3.12 | 7.4 | 8 | –
3 | COc1cc2nccc(Oc3cnc(NC(=O)c4nn(C(C)C)cc(-c5ccc(F)cc5)c4=O)nc3)c2cc1OC [Compound 16, N-(5-((6,7-dimethoxyquinolin-4-yl)oxy)pyrimidine-2-yl)-5-(4-fluorophenyl)-1-isopropyl-4-oxo-1,4-dihydropyridazine-3-carboxamide] | 1.63 | 14.2 | 13 | –
4 | COc1cc2nccc(Oc3cnc(NC(=O)c4cn(C(C)C)cc(-c5ccc(F)cc5)c4=O)nc3)c2cc1OC [Compound 20, N-(5-((6,7-dimethoxyquinolin-4-y)oxy)pyrimidine-2-yl)-5-(4-fluorophenyl)-1-isopropyl-4-oxo-1,4-dihydropyridin-3-carboxamide] | 5.5 | 4.2 | 17 | –
5 | COc1cc2nccc(Oc3ccc(NC(=O)c4nn(C(C)C)cc(-c5ccc(F)cc5)c4=O)cn3)c2cc1OC [Compound 29, N-(6-((6,7-dimethoxyquinolin-4-yl)oxy)pyridin-3-yl)-1-isopropyl-4-oxo-5-para-fluorophenyl-1,4-dihydropyridazine-3-carboxamide] | 3.22 | 7.2 | 5 | –
6 | COc1cc2nccc(Oc3ccc(NC(=O)c4cn(C5CC5)cc(-c5ccc(F)cc5)c4=O)nc3)c2cc1OC [Compound 30, N-(5-((6,7-dimethoxyquinolin-4-yl)oxy)pyridin-2-yl)-1-cyclopropyl-4-oxo-5-para-fluorophenyl-1,4-hydropyridin-3-carboxamide] | 0.888 | 26 | 7 | –
7 | COc1cc2nccc(Oc3ccc(NC(=O)c4nn(C5CC5)cc(-c5ccc(F)cc5)c4=O)nc3)c2cc1OC [Compound 31] | 14.4 | 1.6 | 4 | –
8 | COc1cc2nccc(Oc3cnc(NC(=O)c4nn(C5CC5)cc(-c5ccc(F)cc5)c4=O)nc3)c2cc1OC [Compound 33] | 2.75 | 8.4 | 2 | –
9 | COc1cc2nccc(Oc3ccc(NC(=O)c4cn(C(C)C)nc(-c5ccc(F)cc5)c4=O)nc3)c2cc1OC [Compound 41, N-(5-((6,7-dimethoxyquinolin-4-yl)oxy)pyridin-2-yl)-6-(4-fluorophenyl)-2-isopropyl-5-oxo-2,5-dihydropyridazine-4-carboxamide] | – | – | 12 | –
10 | COc1cc2nccc(Oc3cnc(NC(=O)c4cn(C5CC5)nc(-c5ccc(F)cc5)c4=O)nc3)c2cc1OC [Compound 45, 2-cyclopropyl-N-(5-((6,7-dimethoxyquinolin-4-yl)oxy)pyrimidine-2-yl)-6-(4-fluorophenyl)-5-oxo-2,5-dihydropyridazine-4-carboxamide] | 3.3 | 7 | – | –
11 | COc1cc2nccc(Oc3ccc(NC(=O)c4nn(C5CC5)cc(-c5ccc(C)cc5)c4=O)nc3)c2cc1OC [Compound 46, 1-cyclopropyl-N-(5-((6,7-dimethoxyquinolin-4-yl)oxy)pyridin-2-yl)-4-oxo-5-p-tolyl-1,4-dihydropyridazine-3-carboxamide] | – | – | – | →∞

Next, values leading:

Row | half-life at 1 μM [1] [h] | microsomal CLint at 1 μM [1] [µL/min/mg] | IC50 (Axl (h)) [nM] | t1/2 [1] | SMILES
12 | 6.42 | 3.6 | 11 | – | COc1cc2nccc(Oc3ccc(NC(=O)c4nn(C(C)C)cc(-c5ccc(F)cc5)c4=O)nc3)c2cc1OC [Compound 15, N-(5-((6,7-dimethoxyquinolin-4-yl)oxy)pyridin-2-yl)-5-(4-fluorophenyl)-1-isopropyl-4-oxo-1,4-dihydropyridazine-3-carboxamide]
13 | 4.13 | 5.6 | 5 | – | COc1cc2nccc(Oc3cnc(NC(=O)c4cn(C5CC5)cc(-c5ccc(F)cc5)c4=O)nc3)c2cc1OC [Compound 32, 1-cyclopropyl-N-(5-((6,7-dimethoxyquinolin-4-yl)oxy)pyrimidine-2-yl)-5-(4-fluorophenyl)-4-oxo-1,4-dihydropyridin-3-carboxamide]
14 | – | – | 3 | – | COc1cc2nccc(Oc3ccc(NC(=O)c4cn(C(C)C)nc(-c5ccc(F)cc5)c4=O)cn3)c2cc1OC [Compound 38, N-(6-((6,7-dimethoxyquinolin-4-yl)oxy)pyridin-3-yl)-6-para-fluorophenyl-2-isopropyl-5-oxo-2,5-dihydropyridazine-4-carboxamide]
15 | – | – | – | →∞ | COc1cc2nccc(Oc3ccc(NC(=O)c4cn(C5CC5)nc(-c5ccc(F)cc5)c4=O)nc3)c2cc1OC [Compound 42, 2-cyclopropyl-N-(5--((6,7-dimethoxyquinolin-4-yl)oxy)pyridin-2-yl)-6-(4-fluorophenyl)-5-oxo-2,5-dihydropyridazine-4-carboxamide]
16 | 10.5 | 2.2 | – | – | COc1cc2nccc(Oc3ccc(NC(=O)c4cn(C5CC5)nc(-c5ccc(F)cc5)c4=O)cn3)c2cc1OC [Compound 43, 2-cyclopropyl-N-(6-((6,7-dimethoxyquinolin-4-yl)oxy)pyridin-3-yl)-6-para-fluorophenyl-5-oxo-2,5-dihydropyridazine-4-carboxamide]
